Measurements from publication PMC6131557, “Selective Cytotoxicity of Dihydroorotate Dehydrogenase Inhibitors to Human Cancer Cells Under Hypoxia and Nutrient-Deprived Conditions” (Frontiers in Pharmacology, 2018).
Read-outs that look alike come from different tables or passages of the source. One block for each compound: values may come before it.

Tests used:
[1] = molecular target: T1, human dihydroorotate dehydrogenase (HsDHODH) (Homo sapiens, UniProt Q02127); experiment: Inhibition of recombinant human DHODH enzyme activity; type: biochemical; details: for IC50: recombinant human DHODH; for inhibition at 1 µM: at 1,000 nM, read-out: Inhibition of HsDHODH activity (value in parentheses)
T1 construct: made in house
T1 sequence (Q02127 whole entry): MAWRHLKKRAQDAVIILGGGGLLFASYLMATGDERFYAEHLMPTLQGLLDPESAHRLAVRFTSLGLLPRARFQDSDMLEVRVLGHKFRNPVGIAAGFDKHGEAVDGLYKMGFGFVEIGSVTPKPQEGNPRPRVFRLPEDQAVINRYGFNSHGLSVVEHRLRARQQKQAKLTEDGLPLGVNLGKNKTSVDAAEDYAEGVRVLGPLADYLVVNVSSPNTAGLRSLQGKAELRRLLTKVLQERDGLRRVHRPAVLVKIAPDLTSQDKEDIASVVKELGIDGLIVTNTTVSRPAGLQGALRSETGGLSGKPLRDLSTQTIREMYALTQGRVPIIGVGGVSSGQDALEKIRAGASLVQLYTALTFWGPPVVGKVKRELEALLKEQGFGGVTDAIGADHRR

[2] = molecular target: Complexes I–III; experiment: NADH-cytochrome c reductase (complexes I–III) activity, bovine mitochondria; type: biochemical
Description: (§1) Recombinant human DHODH was purified, crystallized, and assayed as previously described ([Inaoka et al., 2016]) without modification. Bovine mitochondrial fractions were prepared as previously described ([Kita et al., 1988]) and NADH dehydrogenase (complex I), succinate:quinone reductase (complex II), quinol oxidase (complexes III–IV), NADH-cytochrome c reductase (complexes I–III), and succinate-cytochrome c (complexes II–III) activities were assayed following an established method ([Takamiya et al., 1986]; [Miyadera et al., 2001]; [Matsumoto et al., 2008]; [Kido et al., 2010]; [Nihashi et al., 2017]).

[3] = molecular target: T2, Complex II (Bos taurus, UniProt P35720+Q3T189+Q95123); experiment: Succinate:quinone reductase (complex II) activity, bovine mitochondria; type: biochemical
T2 construct: from tissue; host or cells: bovine mitochondrial fraction / sub-mitochondrial particles
T2 sequence (P31039 45-665 partner limits assumed): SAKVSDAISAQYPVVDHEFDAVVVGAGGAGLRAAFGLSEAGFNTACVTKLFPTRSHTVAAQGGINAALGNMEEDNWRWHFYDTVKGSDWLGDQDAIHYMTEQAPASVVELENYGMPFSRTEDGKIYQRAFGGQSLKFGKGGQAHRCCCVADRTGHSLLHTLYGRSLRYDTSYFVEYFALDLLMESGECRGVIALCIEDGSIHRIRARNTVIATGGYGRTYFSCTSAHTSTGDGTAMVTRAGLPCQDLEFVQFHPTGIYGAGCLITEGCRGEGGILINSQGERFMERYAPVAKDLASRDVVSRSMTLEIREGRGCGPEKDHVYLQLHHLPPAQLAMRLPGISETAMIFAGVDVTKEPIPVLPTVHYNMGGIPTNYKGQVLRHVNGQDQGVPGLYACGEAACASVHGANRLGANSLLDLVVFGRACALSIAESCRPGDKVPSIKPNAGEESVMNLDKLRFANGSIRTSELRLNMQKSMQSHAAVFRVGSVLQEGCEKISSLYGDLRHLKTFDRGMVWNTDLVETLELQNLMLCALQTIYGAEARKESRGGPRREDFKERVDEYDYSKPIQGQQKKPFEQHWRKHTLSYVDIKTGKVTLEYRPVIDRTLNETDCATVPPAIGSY
T2 sequence (Q3T189 29-280): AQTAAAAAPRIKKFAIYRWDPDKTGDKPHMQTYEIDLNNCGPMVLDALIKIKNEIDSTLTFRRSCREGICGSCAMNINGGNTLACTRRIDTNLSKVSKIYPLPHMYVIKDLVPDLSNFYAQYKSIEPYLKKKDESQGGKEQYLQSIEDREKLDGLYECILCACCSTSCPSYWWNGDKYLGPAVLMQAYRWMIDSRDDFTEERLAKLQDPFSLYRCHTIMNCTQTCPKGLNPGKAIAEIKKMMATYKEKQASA
T2 sequence (P35720 30-169): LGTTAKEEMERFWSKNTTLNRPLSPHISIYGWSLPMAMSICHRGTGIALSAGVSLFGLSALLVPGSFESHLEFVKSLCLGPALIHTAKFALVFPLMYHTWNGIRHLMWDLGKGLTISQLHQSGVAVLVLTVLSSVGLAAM
T2 sequence (Q95123 56-158): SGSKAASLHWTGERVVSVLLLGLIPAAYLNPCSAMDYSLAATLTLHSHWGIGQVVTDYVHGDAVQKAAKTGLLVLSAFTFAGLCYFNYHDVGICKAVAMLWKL

[4] = tested on: Complex I; experiment: NADH dehydrogenase (complex I) activity, bovine mitochondria; type: biochemical; details: at 5 μM
Description: as §1

[5] = molecular target: Complex II–III; experiment: Succinate-cytochrome c reductase (complexes II–III) activity, bovine mitochondria; type: biochemical
Description: as §1

[6] = molecular target: T3, Complex III (Bos taurus, UniProt P00157); experiment: Quinol oxidase (complex III) activity, bovine mitochondria; type: biochemical; details: ubiquinol oxidase activity
T3 construct: from tissue; host or cells: bovine mitochondrial fraction / sub-mitochondrial particles

[7] = tested on: U251; experiment: 39-cancer cell panel assay: U251; type: cell-based; details: Homo sapiens, U-251, CNS
[8] = tested on: MDA-MB-231; experiment: 39-cancer cell panel assay: MDA-MB-231; type: cell-based; details: Homo sapiens, Br
[9] = tested on: SK-OV-3; experiment: 39-cancer cell panel assay: SK-OV-3; type: cell-based; details: Homo sapiens
[10] = tested on: SF-539; experiment: 39-cancer cell panel assay: SF-539; type: cell-based; details: Homo sapiens, CNS
[11] = tested on: MKN74; experiment: 39-cancer cell panel assay: MKN74; type: cell-based; details: Homo sapiens, MKN-74, St
[12] = tested on: HBC-4; experiment: 39-cancer cell panel assay: HBC-4; type: cell-based; details: Homo sapiens, HBC4, Br
[13] = tested on: SF-268; experiment: 39-cancer cell panel assay: SF-268; type: cell-based; details: Homo sapiens, CNS
[14] = tested on: MKN28; experiment: 39-cancer cell panel assay: MKN28; type: cell-based; details: Homo sapiens, MKN-28, St
[15] = tested on: NCI-H460; experiment: 39-cancer cell panel assay: NCI-H460; type: cell-based; details: Homo sapiens, Lu
[16] = tested on: NCI-H226; experiment: 39-cancer cell panel assay: NCI-H226; type: cell-based; details: Homo sapiens, Lu
[17] = tested on: OVCAR-5; experiment: 39-cancer cell panel assay: OVCAR-5; type: cell-based; details: Homo sapiens, Ov
[18] = tested on: St-4; experiment: 39-cancer cell panel assay: St-4; type: cell-based; details: Homo sapiens
[19] = tested on: MKN1; experiment: 39-cancer cell panel assay: MKN1; type: cell-based; details: Homo sapiens, MKN-1, St
[20] = tested on: HCT-116; experiment: 39-cancer cell panel assay: HCT-116; type: cell-based; details: Homo sapiens, Co
[21] = tested on: SNB-78; experiment: 39-cancer cell panel assay: SNB-78; type: cell-based; details: Homo sapiens, CNS
[22] = tested on: OVCAR-8; experiment: 39-cancer cell panel assay: OVCAR-8; type: cell-based; details: Homo sapiens, Ov
[23] = tested on: PC-3; experiment: 39-cancer cell panel assay: PC-3; type: cell-based; details: Homo sapiens, Pro
[24] = tested on: KM-12; experiment: 39-cancer cell panel assay: KM-12; type: cell-based, human; details: Co
[25] = tested on: NCI-H522; experiment: 39-cancer cell panel assay: NCI-H522; type: cell-based; details: Homo sapiens, Lu
[26] = tested on: MCF-7; experiment: 39-cancer cell panel assay: MCF-7; type: cell-based; details: Homo sapiens, MCF7, Br
[27] = tested on: NCI-H23; experiment: 39-cancer cell panel assay: NCI-H23; type: cell-based; details: Homo sapiens, Lu
[28] = tested on: MKN7; experiment: 39-cancer cell panel assay: MKN7; type: cell-based; details: Homo sapiens, MKN-7, St
[29] = tested on: OVCAR-4; experiment: 39-cancer cell panel assay: OVCAR-4; type: cell-based; details: Homo sapiens, Ov
[30] = tested on: HCT-15; experiment: 39-cancer cell panel assay: HCT-15; type: cell-based; details: Homo sapiens, Co
[31] = tested on: SNB-75; experiment: 39-cancer cell panel assay: SNB-75; type: cell-based; details: Homo sapiens, CNS
[32] = tested on: LOX-IMVI; experiment: 39-cancer cell panel assay: LOX-IMVI; type: cell-based; details: Homo sapiens, Me
[33] = tested on: OVCAR-3; experiment: 39-cancer cell panel assay: OVCAR-3; type: cell-based; details: Homo sapiens, Ov
[34] = tested on: BSY-1; experiment: 39-cancer cell panel assay: BSY-1; type: cell-based; details: Homo sapiens, Br
[35] = tested on: HT-29; experiment: 39-cancer cell panel assay: HT-29; type: cell-based; details: Homo sapiens, Co
[36] = tested on: ACHN; experiment: 39-cancer cell panel assay: ACHN; type: cell-based; details: Homo sapiens, Re
[37] = tested on: DMS273; experiment: 39-cancer cell panel assay: DMS273; type: cell-based; details: Homo sapiens, DMS-273, Lu
[38] = tested on: SF-295; experiment: 39-cancer cell panel assay: SF-295; type: cell-based; details: Homo sapiens, CNS
[39] = tested on: HBC-5; experiment: 39-cancer cell panel assay: HBC-5; type: cell-based; details: Homo sapiens, HBC5, Br
[40] = tested on: HCC2998; experiment: 39-cancer cell panel assay: HCC2998; type: cell-based; details: Homo sapiens, HCC 2998, Co
[41] = tested on: RXF-631L; experiment: 39-cancer cell panel assay: RXF-631L; type: cell-based; details: Homo sapiens, Re
[42] = tested on: DU-145; experiment: 39-cancer cell panel assay: DU-145; type: cell-based; details: Homo sapiens, Pro
[43] = tested on: MKN45; experiment: 39-cancer cell panel assay: MKN45; type: cell-based; details: Homo sapiens, MKN-45, St
[44] = tested on: DMS114; experiment: 39-cancer cell panel assay: DMS114; type: cell-based; details: Homo sapiens, DMS-114, Lu
[45] = tested on: A549; experiment: 39-cancer cell panel assay: A549; type: cell-based; details: Homo sapiens, Lu
[46] = purified enzyme fixed at 10 nM, read-out: IC50 (nM), inhibition of human DHODH

SMILES: C/C(=C\Cc1c(O)c(Cl)c(C)c(C=O)c1O)CC/C=C(\C)C1CC(=O)C(C)(C)O1 (racemic) [Compound 2, racemic-AF]
IC50 [1, 46]: 97.4 ± 7.3 nM

SMILES: COc1[nH]c(=O)c(C(=O)[C@@H](C)C[C@H](C)[C@@H](Cl)CCl)c(O)c1OC [Atpenin A5, reference compound]
IC50 [2]: 2.8 ± 0.44 µM
inhibition at 5 µM [3]: 97 ± 1%
IC50 ([1]; IC50 (μM) HsDHODH, Table 6): > 10000 nM
Inhibition (%) Complex I [4]: 10 ± 2.7%
IC50 [5]: 0.0063 ± 0.0002 µM
inhibition at 5 µM [6]: 0%

IC50 [1, 46]: 74.1 ± 22 nM
SMILES: CC(C)=CCC/C(C)=C/Cc1c(O)c(Cl)c(C)c(C=O)c1O [Compound 3, colletochlorin B]

GI50 [7]: 5.1 µM
GI50 [8]: 36 µM
GI50 [9]: 27 µM
GI50 [10]: 5.3 µM
GI50 [11]: 26 µM
GI50 [12]: 37 µM
GI50 [13]: 12 µM
GI50 [14]: 36 µM
GI50 [15]: 12 µM
GI50 [16]: 24 µM
GI50 [17]: 58 µM
GI50 [18]: 44 µM
GI50 [19]: 44 µM
GI50 [20]: 14 µM
GI50 [21]: 43 µM
GI50 [22]: 25 µM
GI50 [23]: 22 µM
GI50 (μM) KM-12 [24]: 32.0 µM
GI50 [25]: 22 µM
GI50 [26]: 36 µM
GI50 [27]: 39 µM
GI50 [28]: 36 µM
GI50 [29]: 39 µM
GI50 [30]: 6.2 µM
GI50 [31]: 59 µM
GI50 [32]: 13 µM
GI50 [33]: 27 µM
GI50 [34]: 59 µM
GI50 [35]: 39 µM
GI50 [36]: 22 µM
GI50 [37]: 18 µM
GI50 [38]: 16 µM
GI50 [39]: 61 µM
GI50 [40]: 43 µM
IC50 [1, 46]: 63.9 ± 11 nM
GI50 [41]: 45 µM
GI50 [42]: 25 µM
GI50 [43]: 65 µM
GI50 [44]: 35 µM
GI50 [45]: 37 µM
SMILES: C/C(=C\Cc1c(O)c(Cl)c(C)c(C=O)c1O)CC/C=C(\C)C(C)O (centres unmarked) [Compound 6]

IC50 [1, 46]: 67.2 ± 2.8 nM
SMILES: C/C(=C\COC(=O)C(C)(C)C)CC/C(C)=C/Cc1c(O)c(Cl)c(C)c(C=O)c1O [Compound 11]

GI50 [7]: 4.9 µM
GI50 [8]: 10 µM
GI50 [9]: 49 µM
GI50 [10]: 2.2 µM
GI50 [11]: 11 µM
GI50 [12]: 9.4 µM
GI50 [13]: 9.5 µM
GI50 [14]: 13 µM
GI50 [15]: 4.5 µM
GI50 [16]: 8 µM
GI50 [17]: 22 µM
GI50 [18]: 17 µM
GI50 [19]: 12 µM
GI50 [20]: 4.6 µM
GI50 [21]: 28 µM
GI50 [22]: 9.4 µM
GI50 [23]: 13 µM
GI50 (μM) KM-12 [24]: 10.0 µM
GI50 [25]: 4.2 µM
GI50 [26]: 6.7 µM
GI50 [27]: 13 µM
GI50 [28]: 16 µM
GI50 [29]: 19 µM
GI50 [30]: 1.9 µM
GI50 [31]: 28 µM
GI50 [32]: 3.4 µM
GI50 [33]: 7.1 µM
GI50 [34]: 16 µM
GI50 [35]: 5.8 µM
GI50 [36]: 16 µM
GI50 [37]: 3.6 µM
GI50 [38]: 16 µM
GI50 [39]: 18 µM
GI50 [40]: 16 µM
GI50 [41]: 16 µM
GI50 [42]: 23 µM
GI50 [43]: 24 µM
GI50 [44]: 12 µM
GI50 [45]: 7.1 µM
SMILES: C/C(=C\COC(=O)C(C)C)CC/C(C)=C/Cc1c(O)c(Cl)c(C)c(C=O)c1O [Compound 12]

fold decrease (IC50 compared to 4) ([1]; HsDHODH IC50 versus compound 4): about 3.5 fold
IC50 [1, 46]: 349 ± 96 nM
SMILES: C/C(=C\CC/C=C/Cc1c(O)c(Cl)c(C)c(C=O)c1O)COC(=O)C(C)(C)C [Compound 13]

HsDHODH inhibition activity (in words) [1]: abolished
inhibition at 1 µM [1]: 35%
IC50 [1, 46]: > 1000 nM
SMILES: Cc1c(Cl)c(O)c(CCC(C)CCCC(C)COC(=O)C(C)(C)C)c(O)c1C=O (centres unmarked) [Compound 14]

inhibition at 1 µM [1]: 21%
IC50 [1, 46]: > 1000 nM
SMILES: Cc1c(Cl)c(O)c(CCC(C)CCCCOC(=O)C(C)(C)C)c(O)c1C=O (centres unmarked) [Compound 16]
